Here are results for 1 compound from patent US20070037873A1, “Airway remodeling treatments” (priority 2005, published 2007).

One experiment deals with NF-KB. The experiment can be described thus: EMSA of NF-KB binding in nuclear extracts of FLS cells. The class given is cell-based, human. The following applies: 10 μM ajulemic acid for 1 hour. From the text: Human fibroblast-like synovial (FLS) cells were isolated from synovial tissue or synovial fluid of patients with inflammatory arthritis (4 RA, 1 psoriatic arthritis) essentially as described (Stebulis et al., J. Rheumatol. 32:301-06, 2005). Briefly, synovial tissue obtained at the time of joint replacement surgery was minced and plated in tissue culture dishes with growth medium (MEM with 15% FBS, 1% penicillin/streptomycin solution, 1% nonessential amino acids). Synovial fluid was collected in heparinized syringes, then centrifuged at 1200 rpm for 15 min. The cell pellet was resuspended in growth medium, then plated in tissue culture flasks. After 2-4 days, primary cultures were washed with PBS to remove tissue fragments and nonadherent cells. FLS were incubated at 37° C. under 5% CO2 and passaged to 6-well tissue culture plates (split 1:3) when they reached confluence. Passages 2 through 8 were used for experiments.
Experiments were done on FLS rested overnight in low serum medium (MEM/2% FBS). Medium was replaced before beginning the experiments. Cells were treated with 10 μM ajulemic acid for 1 hour then stimulated with 1 ng/ml TNF-α or left unstimulated. Controls were vehicle (0.3% DMSO) treated cells. […] Gels were scanned and analyzed using ADOBE® software for PC.

Experiment [1] deals with Human airway smooth muscle (ASM) cells. The experiment can be described thus: Human ASM cell proliferation (MTT) after TNF-α stimulation. The experiment is classed as cell-based. The following applies: ajulemic acid 0-30 μmoles, 60 minutes, then 1 ng/ml TNF-α for 48 hours, FIG. 1. The method, then:
Human airway smooth muscle (ASM) (also known as human bronchial smooth muscle (HBSM)) cells were obtained cryopreserved from Cambrex Bio Science (Walkersville, Md.) at passage 3. See, Ethier and Madison, Cell Calcium, 32:31-38 (2002) and Zhong et al., Am. J Respir Cell Mol. Biol., 30:118-125 (2004). Cultures were characterized as smooth muscle cells by positive immunostaining for smooth muscle actin and negative for Factor VIII. Cells were seeded and grown in smooth muscle basal medium (SMBM, Cambrex Bio Science) supplemented with 5% fetal bovine serum, 5 μg/ml insulin, 0.5 ng/ml epidermal growth factor, 2 ng/ml fibroblast growth factor, gentamicin, and amphotericin. Cells were maintained at 37° C. in a humidified atmosphere (5% CO2), fed every 48 hours, and passaged when confluent. Shortly after passaging, ajulemic acid (synthesized by Organix, Inc., Woburn, Mass.) was added to growth media to a concentration of 0-30 μmoles. Cells were incubated for 60 minutes, and then stimulated with 1 ng/ml TNF-α for 48 hours. After 48 hours, cell proliferation was evaluated using the Cell Proliferation Kit I (MTT) from Roche Diagnostics (Indianapolis, Ind.), which provides a measure of cell number as a function of optical density.

Another experiment relates to human ASM cells. The experiment can be described thus: Fura-2 calcium transients in agonist-stimulated ASM cells. The class given is cell-based. The following applies: ajulemic acid 10 μM or 20 μM for 10 minutes, F340/F380 ratio, p<0.01 versus control. How it is done:
Human airway smooth muscle (ASM) cells were obtained and passaged as described in Example 1. Subconfluent ASM cells in 96-well plates were washed 3 times in a modified Kreb-Ringer-Henseleit solution (KRH) containing 115 mM NaCl, 5 mM KCl, 1 mM KH2PO4, 1 mM MgSO4, 25 mM N-2-hydroxyethylpiperazine-N′-2-ethanesulfonic acid (HEPES), 15 mM glucose and 2 mM CaCl2. Cells were incubated in 1.0 μM fura 2-AM and pluronic F-127 (0.004%) for 60 minutes at room temperature. See, e.g., Wang et al., Am. J. Phys.; 272:C1151-C1159, 1997. After washing 3 times with KRH, cells were covered with 200 μl KRH and placed on the microscope stage. Reagents were added directly to the wells during calcium recordings. Fura 2-AM and F-127 were from Molecular Probes, Inc. (Eugene, Oreg.). Other chemicals were from Sigma (St. Louis, Mo.).
Fluorescence was induced using computer-controlled 337 and 380 nm UV light generated by a nitrogen laser and a nitrogen laser-pumped dye laser, respectively (Laser Science, Franklin, Mass.). See, e.g., Ethier et al., Cell Calcium, 32:31-38 2002. […]
Background from a cell free region of the cover glass was subtracted prior to data acquisition and then an 11×11 pixels area was selected over each cell. […] Fluorescence emissions stimulated by alternating pulses of ˜340 and 380 nm light were recorded and their ratios plotted. […]

The test system of a further experiment is MMP-1. As to the kind of experiment: MMP-1 mRNA Northern blot in stimulated FLS cells. The class given is cell-based, human. The following applies: FLS treated 60 minutes with AjA, then 10 ng/mL TNFα+1 ng/mL GMCSE for 4 hours; FIG. 4. The method, then:
Human fibroblast-like synovial cells (FLS) were obtained from synovial tissue or synovial fluid, and grown to confluence in 6 well tissue culture plates. Cells were treated or not for 60 minutes with AjA, then stimulated with 10 ng/mL TNFα+1 ng/mL GMCSE for 4 hours. MMP-1 mRNA content measured by Northern blot analysis.
Cells were harvested and resuspended in TRIZOL® solution (GIBCO-BRL) to extract total cellular RNA. The RNA was resuspended in diethylpyrocarbonate (DEPC)-treated water. Total RNA (15 μg) was separated by electrophoresis in 1% agarose/17.6% formaldehyde gels. The RNA was transferred overnight from the denaturing gel onto Hybond-N^+ (Amersham Pharmacia Biotech Inc., Piscataway, N.J.) by capillary action using […] buffer ([…]). The RNA was cross-linked to the filter by ultraviolet irradiation for 20 seconds using a UV Crosslinker (Spectronics Corporation, Westbury, N.Y.) and the blots were hybridized with a solution of 5×SSC, 5× Denhardt's solution, 0.5% SDS, and 10 mg/ml sonicated salmon sperm DNA for 5 hours at 65° C., and 10^7 cpm/ml radio-labeled cDNA generated by random priming with ^32P-dCTP ([…], NEN, Boston, Mass.). Probes specific for the MMP-1 gene were heat denatured and added to the prehybridization buffer for hybridization overnight at 65° C. […]

A further experiment relates to IK-B. The experiment can be described thus: Western blot of IK-B phosphorylation in TNF-α stimulated FLS cells. The experiment is classed as cell-based, human. The settings on record: FIG. 3. The method, then:
FLS cells were collected from human synovial fluid in heparinized syringes, then centrifuged at 1200 rpm (260 g) for 15 minutes. FLS cells are used herein as models of pulmonary fibroblasts and/or myofibroblasts. The resulting cell pellet was resuspended in 7 ml of growth medium (Dulbecco's Minimal Essential Medium with 15% heat-inactivated fetal bovine serum (FBS), 1% nonessential amino acids, 1% penicillin/streptomycin solution) and plated in 25 ml tissue culture flasks. Cultures were incubated at 37° C., under 5% CO2 for 24 to 48 hours after which medium was aspirated and cultures were washed with PBS to remove nonadherent cells. Growth medium was replaced every 3 to 4 days. After 10 to 14 days, adherent cells were harvested by trypsinization, washed, and transferred to 6-well tissue culture plates in fresh growth medium. FLS cells were passaged (split 1:3) at confluence, generally every 10 to 14 days.
FLS cells at passage 2 through 6 were (i) untreated, (ii) treated with 1-30 μM of ajulemic acid in growth media, (iii) treated with 1 ng/ml of TNF-α in growth media, or (iv) treated with a combination of 1-30 μM of ajulemic acid and 1 ng/ml TNF-α for 10 minutes or 45 minutes. Cells were harvested and washed several times with PBS. Whole cell lysates were prepared in hypotonic HEPES buffer (7.45 g KCl/100 ml H2O; 3.80 g EGTA/100 ml H2O;0.87 g PMSF/500 ml H2O; 1.54 g DTT/10 ml H2O). […]

Turning to `CCCCCCC(C)(C)c1cc(O)c2c(c1)OC(C)(C)[C@@H]1CC=C(C(=O)O)C[C@@H]21` [ajulemic acid, 1′,1′dimethylheptyl-Δ8-THC-11-oic acid], the “reduction of TNF-α induced NF-KB activation (binding to oligonucleotide corresponding to an NF-KB binding site)” value with NF-KB (then 1 ng/ml TNF-α, extracts 45 minutes after stimulation, lane 4 vs. lane 3) was “approximately 75%”. Moreover, the “nuclear binding of NF-KB in resting FLS” value in the experiment with NF-KB (unstimulated FLS, EMSA, lane 2 vs. lane 1) was “not altered”. In addition, the “human ASM cell proliferation” value in experiment [1] is listed as “suppressed human ASM cell proliferation in a dose-dependent manner”. In addition, the “calcium transients, histamine stimulated” value with human ASM cells (histamine) was “suppressed calcium transients”. Besides, the “calcium transients, thrombin stimulated” value in the experiment on human ASM cells (thrombin) is on record as “suppressed calcium transients”. The “MMP-1 expression (mRNA, Northern blot)” value with MMP-1 is listed as “downregulates MMP-1 expression in a dose-dependent manner”. Besides, in the experiment with IK-B (1-30 μM ajulemic acid with 1 ng/ml TNF-α, after 45 minutes), the “expression of the non-phosphorylated form of IK-B” value is on record as “dramatically increased expression of the non-phosphorylated form of IK-B”. Moreover, the “phosphorylation of IK-B (phosphor-IK-B)” value in the experiment with IK-B (1-30 μM ajulemic acid, 10 minutes after stimulation with 1 ng/ml TNF-α) is listed as “prevented phosphorylation of IK-B”.
